The record followed here is US20080200490A1, “Alpha-(Aryl-or Heteroaryl-Methyl)-Beta-Piperidino Propanamide Compounds as Orl-1-Receptor Antagonists” (PFIZER INC., priority 2005, published 2008).

The structures appear in SMILES notation. Counter-ions that a name gives are not always drawn. Like-named read-outs stand apart in the source and are kept apart here.

Data set [1] has as its target T1, human ORL1 receptor (Homo sapiens, UniProt P41146).
T1 construct: purchased PerkinElmer; host or cells: HEK-293 cells transfected with human ORL1 receptor (membranes)
Description: ORL1-Receptor Binding Assay. Particulars: [3H]nociceptin, human ORL1 receptor transfected HEK-293 cell membranes. How it is done:
The human ORL1 receptor transfected HEK-293 cell membranes (PerkinElmer) were incubated for 45 min at room temperature with 0.4 nM [^3H]nociceptin, 1.0 mg of wheat germ agglutinin(WGA)-coated SPA beads and various concentrations of test compounds in a final volume of 200 μL of 50 mM HEPES buffer pH 7.4 containing 10 mM MgCl2 and 1 mM EDTA. Non-specific binding (NSB) was determined by the addition of 1 μM unlabeled nociceptin. After the reaction, the assay plate was centrifuged at 1,000 rpm for 1 min and then the radioactivity was measured by WALLAC 1450 MicroBeta Trilux.
The compounds of the examples were tested in the ORL1 Receptor Binding assay.

Data set [2] deals with T2, HERG (Homo sapiens, UniProt Q12809).
T2 construct: expressed in transfected cells; host or cells: HEK-293
It is filed as binding. How it is done:
Cell paste of HEK-293 cells expressing the HERG product was suspended in 10-fold volume of 50 mM Tris buffer adjusted at pH 7.5 at 25° C. with 2 M HCl containing 1 mM MgCl2, 10 mM KCl. The cells were homogenized using a Polytron homogenizer (at the maximum power for 20 seconds) and centrifuged at 48,000 g for 20 minutes at 4° C. The pellet was resuspended, homogenized and centrifuged once more in the same manner. The resultant supernatant was discarded and the final pellet was resuspended (10-fold volume of 50 mM Tris buffer) and homogenized at the maximum power for 20 seconds. The membrane homogenate was aliquoted and stored at −80° C. until use. An aliquot was used for protein concentration determination using a Protein Assay Rapid Kit and ARVO SX plate reader (Wallac). […] Saturation was determined by incubating 20 μl of [^3H]-dofetilide and 160 μl of membrane homogenates (20-30 μg protein per well) for 60 min at room temperature in the absence or presence of 10 μM dofetilide at final concentrations (20 μl) for total or nonspecific binding, respectively. […] Receptor-bound radioactivity was quantified by liquid scintillation counting using Packard LS counter.
For the competition assay, compounds were diluted in 96 well polypropylene plates as 4-point dilutions in semi-log format. […] Receptor-bound radioactivity was quantified by counting Wallac MicroBeta plate counter. […]

T1 sequence (P41146 whole entry): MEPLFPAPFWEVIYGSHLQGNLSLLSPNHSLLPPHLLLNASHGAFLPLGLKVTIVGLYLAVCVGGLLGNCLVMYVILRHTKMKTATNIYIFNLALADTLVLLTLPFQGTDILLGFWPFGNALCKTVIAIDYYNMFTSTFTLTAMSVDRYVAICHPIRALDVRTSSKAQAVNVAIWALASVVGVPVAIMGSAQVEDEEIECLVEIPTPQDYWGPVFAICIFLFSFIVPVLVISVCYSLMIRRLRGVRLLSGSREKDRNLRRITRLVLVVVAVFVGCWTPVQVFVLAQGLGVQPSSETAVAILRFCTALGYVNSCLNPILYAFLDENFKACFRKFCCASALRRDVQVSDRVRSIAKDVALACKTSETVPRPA
T2 sequence (Q12809 whole entry): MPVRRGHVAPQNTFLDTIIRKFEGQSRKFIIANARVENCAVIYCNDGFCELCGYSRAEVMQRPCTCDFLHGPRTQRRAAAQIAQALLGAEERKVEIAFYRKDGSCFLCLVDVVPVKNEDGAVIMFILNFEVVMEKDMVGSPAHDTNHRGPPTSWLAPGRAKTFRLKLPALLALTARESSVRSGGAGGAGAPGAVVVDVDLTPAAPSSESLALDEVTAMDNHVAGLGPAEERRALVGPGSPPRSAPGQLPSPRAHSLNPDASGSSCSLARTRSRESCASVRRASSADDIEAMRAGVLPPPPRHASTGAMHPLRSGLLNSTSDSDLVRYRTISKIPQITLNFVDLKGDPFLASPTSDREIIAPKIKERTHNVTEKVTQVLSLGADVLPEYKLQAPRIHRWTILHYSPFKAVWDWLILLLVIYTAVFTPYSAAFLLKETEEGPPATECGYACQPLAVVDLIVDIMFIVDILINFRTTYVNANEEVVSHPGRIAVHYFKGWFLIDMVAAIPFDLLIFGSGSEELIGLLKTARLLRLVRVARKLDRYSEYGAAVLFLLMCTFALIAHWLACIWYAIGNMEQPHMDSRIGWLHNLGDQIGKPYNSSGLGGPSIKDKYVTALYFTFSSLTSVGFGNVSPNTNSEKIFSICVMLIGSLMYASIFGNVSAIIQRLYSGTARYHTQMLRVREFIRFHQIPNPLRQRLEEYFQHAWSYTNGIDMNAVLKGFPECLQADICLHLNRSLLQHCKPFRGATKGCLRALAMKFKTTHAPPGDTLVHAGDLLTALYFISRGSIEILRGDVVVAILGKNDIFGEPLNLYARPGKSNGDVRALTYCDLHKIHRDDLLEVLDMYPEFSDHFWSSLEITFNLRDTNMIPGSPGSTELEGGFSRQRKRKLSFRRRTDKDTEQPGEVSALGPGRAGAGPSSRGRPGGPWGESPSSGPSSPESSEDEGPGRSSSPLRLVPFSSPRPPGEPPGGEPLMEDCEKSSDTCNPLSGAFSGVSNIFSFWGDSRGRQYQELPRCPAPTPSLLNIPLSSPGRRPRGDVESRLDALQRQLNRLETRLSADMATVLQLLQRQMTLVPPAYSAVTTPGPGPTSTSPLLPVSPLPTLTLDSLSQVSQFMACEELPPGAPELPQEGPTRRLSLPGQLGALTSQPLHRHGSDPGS

`CN(C)C(=O)C(CN1C2CCC1CC1(C2)OCc2ccc(F)cc21)Cn1cccn1` (single isomer, unassigned) [Example 8, 3-(6′-FLUORO-3′H,8H-SPIRO[8-AZABICYCLO[3.2.1]OCTANE-3,1′-[2]BENZOFURAN]-8-YL)-N,N-DIMETHYL-2-(1H-PYRAZOL-1-YLMETHYL)P[…], CITRATE]: the Ki (commonly the equilibrium dissociation constant of an inhibitor or competing ligand from its target) in data set [1] (read-out: Ki) stood at 2.6 nM. Still for that read-out and setting: the value for `CN(C)C(=O)C(CN1C2CCC1CC1(C2)OCc2ccccc21)Cn1cccn1` (single isomer, unassigned; (+)) [Example 3, (+)-N,N-DIMETHYL-3-(1H-PYRAZOL-1-YL)-2-(3′H,8H-SPIRO[8-AZABICYCLO[3.2.1]OCTANE-3,1′-[2]BENZOFURAN]-8-YLMETHYL)P[…], CITRATE] was 2 nM; that for `CN(C)C(=O)C(CN1C2CCC1CC1(C2)OCCc2cc(F)ccc21)Cn1cccn1` (single isomer, unassigned; (+)) [Example 12, (+)-3-(6′-FLUORO-3′,4′-DIHYDRO-8H-SPIRO[8-AZABICYCLO[3.2.1]OCTANE-3,1′-ISOCHROMEN]-8-YL)-N,N-DIMETHYL-2-(1H-PYRAZOL-1-YLMETHYL)P[…], CITRATE] was 140 nM; that for `CN(C)C(=O)C(CN1C2CCC1CC1(C2)OCc2ccc(F)cc21)Cn1cccn1` (single isomer, unassigned; (-)) [Example 7, (−)-3-(6′-FLUORO-3′H,8H-SPIRO[8-AZABICYCLOr3.2.1]OCTANE-3,1′-[2]BENZOFURAN]-8-YL)-N,N-DIMETHYL-2-(1H-PYRAZOL-1-YLMETHYL)PROPANAMIDE] was 3.6 nM.

`CN(C)C(=O)C(CN1C2CCC1CC1(C2)OCCc2cc(F)ccc21)Cn1cccn1` (single isomer, unassigned; (-)) [Example 13, (−)-3-(6′-FLUORO-3′,4′-DIHYDRO-8H-SPIRO[8-AZABICYCLO[3.2.1]OCTANE-3,1′-ISOCHROMEN]-8-YL)-N,N-DIMETHYL-2-(1H-PYRAZOL-1-YLMETHYL)PROPANAMIDE]: the inhibition constant Ki in data set [1] (read-out: Ki) came to 1 nM. Turning to `CN1C(=O)C(CN2CCC3(CCc4ccccc43)CC2)Cc2ccccc21` (stereo not drawn) [Compound (I)], in data set [2], the “activity in the dofetilide binding assay” value is given as “potent activity”. In turn, `CN(C)C(=O)C(Cc1cscn1)CN1C2CCC1CC1(C2)OCc2ccccc21` (stereo not drawn) [Example 1, N,N-DIMETHYL-3-(3′H,8H-SPIRO[8-AZABICYCLO[3.2.1]OCTANE-3,1′-[2]BENZOFURAN]-8-YL)-2-(1,3-THIAZOL-4-YLMETHYL)P[…], CITRATE] registered an inhibitory constant (Ki) in data set [1] (Ki) of 1.8 nM. Consider `CN(C)C(=O)C(CN1C2CCC1CC1(C2)OCc2ccccc21)Cn1cccn1` (stereo not drawn) [Example 2, N,N-DIMETHYL-3-(1H-PYRAZOL-1-YL)-2-(3′H,8H-SPIRO[8-AZABICYCLO[3.2.1]OCTANE-3,1′-[2]BENZOFURAN]-8-YLMETHYL)P[…], CITRATE], for which, in data set [1] (read-out: Ki), the Ki is 2.4 nM.

As to `CN(C)C(=O)C(CN1C2CCC1CC1(C2)OCc2ccc(F)cc21)Cn1cccn1` (stereo not drawn) [Example 5, 3-(6′-FLUORO-3′H,8H-SPIRO[8-AZABICYCLO[3.2.1]OCTANE-3,1′-[2]BENZOFURAN]-8-YL)-N,N-DIMETHYL-2-(1H-PYRAZOL-1-YLMETHYL)P[…], CITRATE], the Ki in data set [1] (read-out: Ki) stood at 3.6 nM. Still for that read-out and setting: the value for `CN(C)C(=O)C(Cc1cscn1)CN1C2CCC1CC1(C2)OCc2ccc(F)cc21` (stereo not drawn) [Example 9, 3-(6′-FLUORO-3′H,8H-SPIRO[8-AZABICYCLO[3.2.1]OCTANE-3,1′-[2]BENZOFURAN]-8-YL)-N,N-DIMETHYL-2-(1,3-THIAZOL-4-YLMETHYL) P[…]] was 3.8 nM; that for `CN(C)C(=O)C(CN1C2CCC1CC1(C2)OCCc2ccccc21)Cn1cccn1` (stereo not drawn) [Example 10, 3-(3′,4′-DIHYDRO-8H-SPIRO[8-AZABICYCLO[3.2.1]OCTANE-3,1′-ISOCHROMEN]-8-YL)-N,N-DIMETHYL-2-(1H-PYRAZOL-1-YLMETHYL)P[…], CITRATE] was 7.2 nM; that for `CN(C)C(=O)C(CN1C2CCC1CC1(C2)OCCc2cc(F)ccc21)Cn1cccn1` (stereo not drawn) [Example 11, 3-(6′-FLUORO-3′,4′-DIHYDRO-8H-SPIRO[8-AZABICYCLO[3.2.1]OCTANE-3,1′-ISOCHROMEN]-8-YL)—N,N-DIMETHYL-2-(1H-PYRAZOL-1-YLMETHYL)P[…], CITRATE] was 1.3 nM.
